For 33 compounds, remaining activity results are on record in paper PMC8286840, “Identifying SARS-CoV-2 antiviral compounds by screening for small molecule inhibitors of Nsp3 papain-like protease” (Biochemical Journal, 2021).

Test [1] deals with T1, SARS-CoV-2 PLpro (nsp3 1564–1878) (Severe acute respiratory syndrome coronavirus 2, UniProt P0DTD1). The test is described as follows: biochemical. Also on record: FRET-quenched peptide (Pro3) cleavage by PLpro, 10 min pre-incubation, slope over 20 min, normalised to no-compound control. The note with it: read-out: % of control remaining.
The target in test [2] is T1, SARS-CoV-2 PLpro (nsp3 1564–1878). The test is described as follows: biochemical. On the set-up: FRET-quenched peptide (Pro3) cleavage by PLpro, 10 min pre-incubation, slope over 20 min, normalised to no-compound control. The settings on record: read-out: % of control remaining. The source holds these as a separate data set.

Structures can show the parent of a compound that is named as a salt. Where two headings read alike, the source gives them in different places.

`O=C1CC2(CCCC2)CC(=O)N1CCCCN1CCN(c2ncccn2)CC1` [Buspirone hydrochloride]: the remaining activity at 1.25 µM in test [1] (Well no.=319, low concentration screen) stood at 98.2%. Further, in test [2] (Well no.=319, high concentration screen), the remaining activity at 3.75 µM came to 99.4%.

For the compound `O=C(/C=C/c1ccc(O)c(O)c1)c1ccc(O)cc1O` [Butein], in test [1] (Well no.=3272, low concentration screen), the remaining activity at 1.25 µM is 96.3%. Further, the remaining activity at 3.75 µM in test [2] (Well no.=3272, high concentration screen) was found to be 97.5%.

Regarding `CN(Cc1ccc(C(C)(C)C)cc1)Cc1cccc2ccccc12` [Butenafine HCl], the remaining activity at 1.25 µM in test [1] (Well no.=5371, low concentration screen) came to 98.1%. Moreover, the remaining activity at 3.75 µM in test [2] (Well no.=5371, high concentration screen) was 97.8%.

With `CN(Cc1ccc(C(C)(C)C)cc1)Cc1cccc2ccccc12` [Butenafine], the remaining activity at 1.25 µM in test [1] (Well no.=1876, low concentration screen) was determined as 97.2%. Also, the remaining activity at 3.75 µM in test [2] (Well no.=1876, high concentration screen) was 94.3%.

On to `CCCCS(=N)(=O)CCC(N)C(=O)O` (centres unmarked) [Buthionine sulfoximine], for which the remaining activity at 1.25 µM in test [1] (Well no.=4086, low concentration screen) came out at 101%. In test [2] (Well no.=4086, high concentration screen), the remaining activity at 3.75 µM is 100%.

With `Clc1ccc(CCC(Cn2ccnc2)Sc2c(Cl)cccc2Cl)cc1` (centres unmarked) [Butoconazole nitrate], in test [1] (Well no.=2204, low concentration screen), the remaining activity at 1.25 µM was determined as 96.3%. Moreover, in test [2] (Well no.=2204, high concentration screen), the remaining activity at 3.75 µM is 93.9%.

On to `CCCC(=O)OCC[N+](C)(C)C` [Butyrylcholine], for which the remaining activity at 1.25 µM in test [1] (Well no.=1738, low concentration screen) stood at 103%. The remaining activity at 3.75 µM in test [2] (Well no.=1738, high concentration screen) came to 100%.

As for `CN1C(=O)C(Cc2ccc3ccccc3c2)N=C(c2ccc(O)cc2)c2cc(Cl)ccc21` (centres unmarked) [Bz 423], in test [1], the remaining activity at 1.25 µM was 96.5%. In addition, the remaining activity at 3.75 µM in test [2] amounted to 93.6%.

On to `CCCCCCCCCCCCC/C=C/[C@@H](O)[C@H](CO)NC(C)=O` [C2 Ceramide], for which, in test [1] (Well no.=4363, low concentration screen), the remaining activity at 1.25 µM stood at 108%. Moreover, in test [2] (Well no.=4363, high concentration screen), the remaining activity at 3.75 µM was 104%.

With `CCCCCCCCCCCCCC[C@@H](O)[C@@H](O)[C@@H](CO)NC(C)=O` [C2 Phytoceramide], the remaining activity at 1.25 µM in test [1] (Well no.=3531, low concentration screen) worked out at 99.2%. Also, in test [2] (Well no.=3531, high concentration screen), the remaining activity at 3.75 µM stood at 104%.

`CCCCCCCCCCCCC/C=C/[C@@H](O)[C@H](CO)NC(=O)CCCCC` [C6 Ceramide]: in test [1] (Well no.=3123, low concentration screen), the remaining activity at 1.25 µM is 100%. In addition, the remaining activity at 3.75 µM in test [2] (Well no.=3123, high concentration screen) was 101%.

For the compound `CCCCCCCCCCCCC/C=C/[C@@H](O)[C@H](CO)NC(=O)CCCCCCC` [C8 Ceramide], in test [1] (Well no.=4255, low concentration screen), the remaining activity at 1.25 µM was 100%. For the same compound, the remaining activity at 3.75 µM in test [2] (Well no.=4255, high concentration screen) is 99.1%.

`CCCCCCCCCCCCC/C=C/[C@@H](O)[C@H](CO)NCCCCCCCC` [C8 Ceramine]: in test [1] (Well no.=4409, low concentration screen), the remaining activity at 1.25 µM was found to be 101%. The remaining activity at 3.75 µM in test [2] (Well no.=4409, high concentration screen) came out at 95.2%.

Consider `CCCCCCCCCCCCCCC[C@@H](O)[C@H](CO)NC(=O)CCCCCCC` [C8 Dihydroceramide], for which the remaining activity at 1.25 µM in test [1] (Well no.=4395, low concentration screen) was found to be 99.8%. Further, in test [2] (Well no.=4395, high concentration screen), the remaining activity at 3.75 µM was found to be 99.1%.

Consider `CCCCCCCCCCCCC/C=C/[C@@H](O)[C@H](CO)NC(=O)CCCCCCCCCCCCCCC` [C16 Ceramide], for which the remaining activity at 1.25 µM in test [1] (Well no.=4397, low concentration screen) turned out to be 101%. Further, the remaining activity at 3.75 µM in test [2] (Well no.=4397, high concentration screen) came to 101%.

Turning to `CC1=NN(c2ccc(C(=O)O)cc2)C(=O)/C1=C\c1ccc(-c2cc(C)c(C)cc2[N+](=O)[O-])o1` [C646], the remaining activity at 1.25 µM in test [1] (Well no.=5456, low concentration screen) was found to be 98.3%. Further, the remaining activity at 3.75 µM in test [2] (Well no.=5456, high concentration screen) was found to be 101%.

Regarding `CCCNC(=O)[C@H]1O[C@@H]1C(=O)N[C@H](C(=O)N1CCC[C@H]1C(=O)OC)[C@@H](C)CC` [CA-074 methyl ester], the remaining activity at 1.25 µM in test [1] (Well no.=8166, low concentration screen) was 105%. Besides, in test [2] (Well no.=8166, high concentration screen), the remaining activity at 3.75 µM came out at 100%.

`CCCNC(=O)[C@H]1O[C@@H]1C(=O)N[C@H](C(=O)N1CCC[C@H]1C(=O)O)[C@@H](C)CC` [CA-074]: the remaining activity at 1.25 µM in test [1] (Well no.=8272, low concentration screen) is 104%. For the same compound, in test [2] (Well no.=8272, high concentration screen), the remaining activity at 3.75 µM is 101%.

On to `O=C1/C(=C/c2ccc(O)c(Br)c2)CN(Cc2ccccc2)C/C1=C\c1ccc(O)c(Br)c1` [CARM1-IN-1], for which the remaining activity at 1.25 µM in test [1] (Well no.=8030, low concentration screen) was determined as 94.4%. Besides, the remaining activity at 3.75 µM in test [2] (Well no.=8030, high concentration screen) was 88%.

For the compound `OCCNC1CCCc2c1[nH]c1ccc(-c3ccccc3)cc21` (centres unmarked) [CASIN], the remaining activity at 1.25 µM in test [1] (Well no.=7373, low concentration screen) amounted to 102%. In addition, the remaining activity at 3.75 µM in test [2] (Well no.=7373, high concentration screen) was 105%.

With `CCCCCOc1ccccc1C(O)CC#CCCCC(=O)OC` (centres unmarked) [CAY10514], the remaining activity at 1.25 µM in test [1] (Well no.=4293, low concentration screen) amounted to 100%. Further, the remaining activity at 3.75 µM in test [2] (Well no.=4293, high concentration screen) came to 98.7%.

Consider `NC(=O)c1cc(N2CC2)c([N+](=O)[O-])cc1[N+](=O)[O-]` [CB 1954], for which the remaining activity at 1.25 µM in test [1] (Well no.=189, low concentration screen) is 94.7%. Besides, the remaining activity at 3.75 µM in test [2] (Well no.=189, high concentration screen) came to 95.5%.

For the compound `C[C@H](N)C(=O)N1C[C@H](CCCB(O)O)[C@](N)(C(=O)O)C1` [CB-1158 (dihydrochloride)], the remaining activity at 1.25 µM in test [1] (Well no.=8743, low concentration screen) stood at 100%. Besides, in test [2] (Well no.=8743, high concentration screen), the remaining activity at 3.75 µM stood at 99.3%.

`Nc1ccc(/C=C/c2cccc(C(=O)O)n2)cc1` [CB-7921220]: the remaining activity at 1.25 µM in test [1] (Well no.=7759, low concentration screen) stood at 103%. Besides, the remaining activity at 3.75 µM in test [2] (Well no.=7759, high concentration screen) is 95.7%.

Regarding `c1cc(OCCN2CCCCC2)cc(-c2n[nH]c3ccc(-c4nnc[nH]4)cc23)c1` [CC-401], the remaining activity at 1.25 µM in test [1] (Well no.=3027, low concentration screen) is 99.3%. In addition, the remaining activity at 3.75 µM in test [2] (Well no.=3027, high concentration screen) came to 96.9%.

With `COc1ccc(N2C(=O)/C(=C\c3ccc([N+](=O)[O-])s3)SC2=S)cc1` [CCF642], the remaining activity at 1.25 µM in test [1] (Well no.=8774, low concentration screen) amounted to 93.3%. The remaining activity at 3.75 µM in test [2] (Well no.=8774, high concentration screen) was determined as 93.7%.

As to `Cc1ccc(-n2sc(=O)n(Cc3ccc(F)cc3)c2=O)cc1` [CCG 50014], the remaining activity at 1.25 µM in test [1] (Well no.=5215, low concentration screen) amounted to 105%. For the same compound, in test [2] (Well no.=5215, high concentration screen), the remaining activity at 3.75 µM amounted to 102%.

As for `CC(ONC(=O)c1cc(C(F)(F)F)cc(C(F)(F)F)c1)C(=O)Nc1ccc(Cl)cc1` (centres unmarked) [CCG-1423], the remaining activity at 1.25 µM in test [1] (Well no.=7811, low concentration screen) is 99.2%. The remaining activity at 3.75 µM in test [2] (Well no.=7811, high concentration screen) amounted to 101%.

Regarding `Cc1cccn2c(=O)c(/C=C(\C#N)c3nc4ccccc4s3)c(Oc3ccc(F)cc3)nc12` [CCG-63808], the remaining activity at 1.25 µM in test [1] (Well no.=7037, low concentration screen) was 102%. For the same compound, the remaining activity at 3.75 µM in test [2] (Well no.=7037, high concentration screen) is 101%.

Consider `O=C(Nc1ccc(Cl)cc1)C1CCCN(C(=O)c2cccc(-c3ccco3)c2)C1` (centres unmarked) [CCG-203971], for which the remaining activity at 1.25 µM in test [1] (Well no.=6005, low concentration screen) turned out to be 103%. Moreover, in test [2] (Well no.=6005, high concentration screen), the remaining activity at 3.75 µM turned out to be 101%.

Turning to `CC(=O)C1=C(O)C(=O)N(c2ccc(Cl)cc2F)[C@@H]1C1CCCCC1` [CCR2-RA-[R]], the remaining activity at 1.25 µM in test [1] (Well no.=8118, low concentration screen) worked out at 100%; in test [1] (Well no.=8229, low concentration screen), 96.6%. Further, the remaining activity at 3.75 µM in test [2] (Well no.=8118, high concentration screen) amounted to 95.9%; in test [2] (Well no.=8229, high concentration screen) it was 91.4%.

`NC(=O)c1cc(-c2ccc(S(=O)(=O)[C@H]3CC[C@H](Nc4ccc(C(F)(F)F)cn4)CC3)cc2)ccn1` [CCR6 inhibitor 1]: the remaining activity at 1.25 µM in test [1] (Well no.=8609, low concentration screen) turned out to be 103%. Further, the remaining activity at 3.75 µM in test [2] (Well no.=8609, high concentration screen) worked out at 99%.

For the compound `NC1(Cc2ccc(Cl)cc2)CCN(c2ncnc3[nH]ccc23)CC1` [CCT128930], the remaining activity at 1.25 µM in test [1] (Well no.=5302, low concentration screen) was 97.5%. For the same compound, in test [2] (Well no.=5302, high concentration screen), the remaining activity at 3.75 µM was found to be 95.6%.
